Experimental data as given in patent publication US20110027354A1, “ANTI-PA[…]” (priority 2008, published 2011).

Assays:
mice [1] = assay: Locomotor activity after repeated treatment with drug alone; format: in vivo; conditions: repeated treatment i.p./day×7, selegiline or MPPE 2.5 or 5.0 mg/kg, MA 0.5 or 1.0 mg/kg
Method: Selegiline or […] was injected (2.5 or 5 mg/kg, i.p.) once a day for 7 consecutive days. Methamphetamine, a positive control, was also administered (0.5 or 1 mg/kg, i.p.) once a day for 7 days.
Locomotor activity measured for 30 min one day after the last MPTP administration using an automated video-tracking system (Noldus Information Technology, Wagenin, The Netherlands). Eight test boxes (40×40×30 cm high) were operated simultaneously by an IBM computer. Animals were studied individually during locomotion in each test box, where they were adapted for 5 min before starting the experiment. […] The distance traveled in cm by the animals in horizontal locomotor activity was analyzed. Data were collected and analyzed between 09:00 and 17:00 h (Kim et al., 2001).

mice [2] = assay: Conditioned place preference (CPP); format: in vivo; conditions: selegiline or MPPE 2.5 or 5.0 mg/kg i.p., MA 0.5 or 1.0 mg/kg i.p.; vs. saline
Method: For conditioned place preference (CPP) test, mice received an i.p. injection of saline just before entering the […] compartment. MA (0.5 or 1.0 mg/kg, i.p.), selegiline (2.5 or 5.0 mg/kg, i.p.), and MPPE (2.5 or 5.0 mg/kg, i.p.) dissolved in saline was administered immediately before the mice were placed in the white compartment. On day 1, the mice were pre-exposed to the test apparatus for 15 minutes. The guillotine style doors were raised and mice were allowed to move freely between the two compartments. On day 2, the time each mouse spent in each compartment was recorded for 15 minutes. On days 3, 5, 7, 9, 11, and 13, the mice were injected with each drug before being confined to the white compartment, the non-preferred side, for 40 minutes. On day 14, the guillotine doors were raised. The mice were initially placed in the tunnel and the time spent by the mice in the two compartments was recorded for 15 minutes. The scores were calculated from the differences in the time spent in the white compartment in the testing and pre-testing phases. Data were analyzed between 09:00 and 17:00 hours.

SMILES: CN[C@@H](C)Cc1ccccc1 [MA, methamphetamine]
- locomotor patterns (mice [1]): typical circling locomotor patterns
- locomotor activities (mice [1]; vs. saline): significantly increased
- conditioned place preference (CPP) (mice [2]): significantly increased compared with saline
